# In patent US10450549B2, “Aryloxyphenoxypropionate tolerance in turfrgass species and use of AAD1 as a selectable marker” (Dow AgroSciences, LLC, priority 2004, dated 2019):
# Columns and labels:
# [1] = system: AAD1 (v3)-transformed T0 corn events; assay: Tolerance of T0 AAD1 (v3) corn plants (pDAB3404) to postemergence AOPP herbicides; format: in vivo
# [2] = system: Hi-II corn grown from seed; assay: Lethal dose of AOPP herbicides on non-transformed Hi-II corn
# [3] = system: Non-transformed hybrids; assay: Field tolerance to quizalofop and 2,4-D: non-transformed hybrids; format: in vivo, corn; settings: 1120 g ae/ha
# Excerpt: Two field trials were established at field stations in Hawaii and Indiana. […] The hybrid Hi-II×5XH571 is of the same parentage as the AAD1 (v3) event lines. The hybrid Croplan 585SR is a sethoxydim resistant line.
# The experimental design was a split-plot with four replications. The main plot was herbicide treatment and the sub-plot was AAD1 (v3) event or comparison hybrid. Plots were one row by 3.7 meters with approximately twenty-five seeds planted in each row. For AAD1 events, seeds from a different lineage within the event were planted in each replicate.
# Glufosinate at 560 g ai/ha was applied to AAD1 (v3) plots at the V2 stage to eliminate non-transformed plants. […] Treatments were applied using backpack broadcast boom equipment delivering 187 L/ha carrier volume at 130-200 kpa pressure.
# Quizalofop treated plots were visually assessed for crop injury at one and three weeks after application (WAA) using a 0-100% scale, where 0 equals no injury and 100 equals complete death.
# [4] = system: AAD1-transformed T0 ‘Crenshaw’ creeping bentgrass events (pDAB3878, pDAB5042); assay: Quizalofop-p-ethyl postemergence on AAD1-transformed T0 Crenshaw creeping bentgrass, visual % injury; format: in vivo, Agrostis stolonifera L. var. palustris
# Description: After molecular confirmation was utilized to identify transgenic events, a number of transgenic events were tested for herbicide tolerance. Specific isolated transgenic events were selected and maintained vegetatively through division of the crowns and replanting the clonal pieces into fresh growth medium. Clonally propagated plants were maintained by periodic “mowing” of vegetative tissues.
# Growth medium was prepared by mixing Promix® and sand in a 2 to 1 ratio. The medium was contained in plastic pots with a surface area of 84.6 square centimeters (cm^2). When required to maintain plant health, a fungicide, insecticide, and/or other chemical or physical treatment was applied to stock plants. The plants were maintained in a greenhouse with an approximate 14 hour photoperiod which was maintained at 24-27° C. during the day and 22-25° C. during the night. Nutrients (Peters Excel® 15-5-15 5-Ca 2-Mg and iron chelate) were applied in the irrigation solution as needed, and water was added on a regular basis. Supplemental lighting was provided with overhead metal halide 1000-Watt lamps when photosynthetically active radiation (PAR) dropped below 500.
# Selected T0 plants were sprayed with quizalofop-p-ethyl (Assure II®, DUPONT, Wilmington, Del.) at rates ranging from 60 to 2,240 g ae/ha. […] This rate also controls susceptible monocot weed species. Measured amounts were placed individually in 25 mL glass vials and dissolved in a 4 mL volume of 1.0% (v/v) Agri-Dex® Crop Oil Concentrate (COC) from HELENA CHEMICAL (Collierville, Tenn.). Application solutions were prepared by serial dilution of the highest rate applied. One-half the volume of the highest rate stock solution (2 mL) was transferred to a clean 25 mL vial containing an equal volume of 1% COC and the diluted solution was mixed. Additional dilutions were prepared similarly by removing one-half the volume of the previous concentration (2 mL), and adding to an equal volume of 1% COC and mixing. When preparing the lowest concentration, the remaining one-half volume was discarded. All 2 mL stock solutions were further diluted by adding 10 mL aqueous mixture of 1.0% (v/v) COC, so that the final spray solutions were 12 mL in volume and contained 1.0% (v/v) COC.
# Spray solutions were applied to the plant material with an overhead Mandel™ track sprayer equipped with a 8002E nozzles calibrated to deliver 187 L/ha over an application area of 0.503 square meters (m^2) at a spray height of 18 inches (46 cm) above average plant canopy height. Control plants were sprayed in the same manner with the COC blank.
# The treated plants and control plants were placed in a greenhouse, and watered by sub-irrigation to prevent wash-off of the test compounds. At various times after application, the condition of the test plants as compared with that of the untreated plants was determined visually and scored on a scale of 0 to 100 percent (where 0 corresponds to no injury or growth inhibition and 100 corresponds to complete kill). Regenerated, non-transformed (NT) ‘Crenshaw’ or elite line 2905-2 creeping bentgrass plants and/or seed-derived clonally propagated plants served as quizalofop sensitive controls.
smiles,measurement,setting,value
CC(Oc1ccc(Oc2ncc(C(F)(F)F)cc2Cl)cc1)C(=O)O (centres unmarked) [haloxyfop],% Injury 14 DAT,"[1]; 8.8 g ae/ha, construct 3404 event 001 clone 016",0%
same,% Injury 14 DAT,"[1]; 8.8 g ae/ha, construct 3404 event 022 clone 019",0%
same,% Injury 14 DAT,"[1]; 8.8 g ae/ha, construct 3404 event 038 clone 016",0%
same,% Injury 14 DAT,"[1]; 17.5 g ae/ha, construct 3404 event 022 clone 016",0%
same,% Injury 14 DAT,"[1]; 17.5 g ae/ha, construct 3404 event 022 clone 020",0%
same,lethal dose,[2]; Gallant super + 1% COC (v/v),8.8 g ae/ha)
same,rate that effectively kills (>95% injury) three to four leaf Hi-II corn,"[2]; postemergence, commercial formulations",8.8 g ae/ha
"O=C(O)COc1ccc(Cl)cc1Cl [2,4-D, 2,4-dichlorophenoxyacetic acid]",epinastic leaning in non-transformed hybrids,[3]; 2 DAA,11-33%
same,brace root deformation rating (0-10 scale),"[3]; non-transformed hybrids, 3-4 WAA",9
CCOC(=O)[C@@H](C)Oc1ccc(Oc2cnc3cc(Cl)ccc3n2)cc1 [quizalofop-p-ethyl],injury of events CBG12 and CBG23,[4]; 120 g ae/ha,uninjured
same,injury of events CBG12 and CBG23,[4]; 480 g ae/ha,less than 10%
same,Mean % Injury (SE),"[4]; event CBG2, 120 g ae/ha, 11 DAA",30 (0) %
same,Mean % Injury (SE),"[4]; event CBG2, 120 g ae/ha, 14 DAA",30 (0) %
same,Mean % Injury (SE),"[4]; event CBG2, 120 g ae/ha, 20 DAA",25 (0) %
same,Mean % Injury (SE),"[4]; event CBG2, 480 g ae/ha, 11 DAA",45%
same,Mean % Injury (SE),"[4]; event CBG2, 480 g ae/ha, 14 DAA",45%
same,Mean % Injury (SE),"[4]; event CBG2, 480 g ae/ha, 20 DAA",40%
same,Mean % Injury (SE),"[4]; event CBG4, 120 g ae/ha, 11 DAA",70 (0) %
same,Mean % Injury (SE),"[4]; event CBG4, 120 g ae/ha, 14 DAA",85 (0) %
same,Mean % Injury (SE),"[4]; event CBG4, 120 g ae/ha, 20 DAA",90 (3) %
same,Mean % Injury (SE),"[4]; event CBG5, 120 g ae/ha, 11 DAA",32 (6) %
same,Mean % Injury (SE),"[4]; event CBG5, 120 g ae/ha, 14 DAA",42 (8) %
same,Mean % Injury (SE),"[4]; event CBG5, 120 g ae/ha, 20 DAA",23 (7) %
same,Mean % Injury (SE),"[4]; event CBG5, 480 g ae/ha, 11 DAA",30 (5) %
same,Mean % Injury (SE),"[4]; event CBG5, 480 g ae/ha, 14 DAA",30 (5) %
same,Mean % Injury (SE),"[4]; event CBG5, 480 g ae/ha, 20 DAA",10 (0) %
same,Mean % Injury (SE),"[4]; event CBG12, 120 g ae/ha, 11 DAA",0 (0) %
same,Mean % Injury (SE),"[4]; event CBG12, 120 g ae/ha, 14 DAA",0 (0) %
same,Mean % Injury (SE),"[4]; event CBG12, 120 g ae/ha, 20 DAA",0 (0) %
same,Mean % Injury (SE),"[4]; event CBG12, 480 g ae/ha, 11 DAA",5 (3) %
same,Mean % Injury (SE),"[4]; event CBG12, 480 g ae/ha, 14 DAA",5 (3) %
same,Mean % Injury (SE),"[4]; event CBG12, 480 g ae/ha, 20 DAA",5 (0) %
same,Mean % Injury (SE),"[4]; event CBG14, 120 g ae/ha, 11 DAA",15 (5) %
same,Mean % Injury (SE),"[4]; event CBG14, 120 g ae/ha, 14 DAA",18 (3) %
same,Mean % Injury (SE),"[4]; event CBG14, 120 g ae/ha, 20 DAA",5 (5) %
same,Mean % Injury (SE),"[4]; event CBG14, 480 g ae/ha, 11 DAA",30%
same,Mean % Injury (SE),"[4]; event CBG14, 480 g ae/ha, 14 DAA",25%
same,Mean % Injury (SE),"[4]; event CBG14, 480 g ae/ha, 20 DAA",15%
same,Mean % Injury (SE),"[4]; event CBG23, 120 g ae/ha, 11 DAA",0 (0) %
same,Mean % Injury (SE),"[4]; event CBG23, 120 g ae/ha, 14 DAA",0 (0) %
same,Mean % Injury (SE),"[4]; event CBG23, 120 g ae/ha, 20 DAA",0 (0) %
same,Mean % Injury (SE),"[4]; event CBG23, 480 g ae/ha, 11 DAA",7 (2) %
same,Mean % Injury (SE),"[4]; event CBG23, 480 g ae/ha, 14 DAA",7 (3) %
same,Mean % Injury (SE),"[4]; event CBG23, 480 g ae/ha, 20 DAA",0 (0) %
same,Mean % Injury (SE),"[4]; event CBG27, 120 g ae/ha, 11 DAA",68 (3) %
same,Mean % Injury (SE),"[4]; event CBG27, 120 g ae/ha, 14 DAA",75 (5) %
same,Mean % Injury (SE),"[4]; event CBG27, 120 g ae/ha, 20 DAA",75 (5) %
same,Mean % Injury (SE),"[4]; event CBG27, 480 g ae/ha, 11 DAA",85%
same,Mean % Injury (SE),"[4]; event CBG27, 480 g ae/ha, 14 DAA",85%
same,Mean % Injury (SE),"[4]; event CBG27, 480 g ae/ha, 20 DAA",85%
same,Mean % Injury (SE),"[4]; event CBG31, 120 g ae/ha, 11 DAA",0%
same,Mean % Injury (SE),"[4]; event CBG31, 120 g ae/ha, 14 DAA",5%
same,Mean % Injury (SE),"[4]; event CBG31, 120 g ae/ha, 20 DAA",0%
same,Mean % Injury (SE),"[4]; event CBG32, 120 g ae/ha, 11 DAA",5 (0) %
same,Mean % Injury (SE),"[4]; event CBG32, 120 g ae/ha, 14 DAA",0 (0) %
same,Mean % Injury (SE),"[4]; event CBG32, 120 g ae/ha, 20 DAA",0 (0) %
same,Mean % Injury (SE),"[4]; event CBG32, 480 g ae/ha, 11 DAA",20%
same,Mean % Injury (SE),"[4]; event CBG32, 480 g ae/ha, 14 DAA",20%
same,Mean % Injury (SE),"[4]; event CBG32, 480 g ae/ha, 20 DAA",5%
same,Mean % Injury (SE),"[4]; event CBG33, 120 g ae/ha, 11 DAA",8 (3) %
same,Mean % Injury (SE),"[4]; event CBG33, 120 g ae/ha, 14 DAA",10 (0) %
same,Mean % Injury (SE),"[4]; event CBG33, 120 g ae/ha, 20 DAA",5 (0) %
same,Mean % Injury (SE),"[4]; event CBG33, 480 g ae/ha, 11 DAA",15%
same,Mean % Injury (SE),"[4]; event CBG33, 480 g ae/ha, 14 DAA",15%
same,Mean % Injury (SE),"[4]; event CBG33, 480 g ae/ha, 20 DAA",15%
same,Mean % Injury (SE),"[4]; event CBG38, 120 g ae/ha, 11 DAA",14 (1) %
same,Mean % Injury (SE),"[4]; event CBG38, 120 g ae/ha, 14 DAA",13 (3) %
same,Mean % Injury (SE),"[4]; event CBG38, 120 g ae/ha, 20 DAA",6 (1) %
same,Mean % Injury (SE),"[4]; event CBG38, 480 g ae/ha, 11 DAA",22 (4) %
same,Mean % Injury (SE),"[4]; event CBG38, 480 g ae/ha, 14 DAA",22 (4) %
same,Mean % Injury (SE),"[4]; event CBG38, 480 g ae/ha, 20 DAA",13 (2) %
